pIC50: −log10 of the molar value.
Assays:
[1] = target: p38 (Homo sapiens, UniProt Q16539); assay: p38 in vitro kinase assay (SPA, GST-ATF2 substrate); format: biochemical; conditions: preactivated p38
Description: (§1) JNK 2 and 3 in vitro assays: JNK3 and/or 2 assays are performed in 96 well MTT plates, by incubation of 0.5 μg of recombinant, pre-activated GST-JNK3 or GST-JNK2 with 1 μg of recombinant, biotinylated GST-c-Jun and 2 μM ^33γ-ATP (2 nCi/μl), in the presence or absence of sulfonamide inhibitors if formula I and in a reaction volume of 50 μl containing 50 mM Tris-HCl, pH 8.0; 10 mM MgCl2; 1 mM Dithiothreitol, and 100 μM NaVO4. The incubation is performed for 120 min. at R.T and stopped upon addition of 200 μl of a solution containing 250 μg of Streptavidine-coated SPA beads (Amersham, Inc.)*, 5 mM EDTA, 0.1% Triton X-100 and 50 μM ATP, in phosphate saline buffer. After incubation for 60 minutes at RT, beads are sedimented by centrifugation at 1500×g for 5 minutes, resuspended in 200 μl of PBS containing 5 mM EDTA, 0.1% Triton X-100 and 50 μM ATP and the radioactivity measured in a scintillation β counter, following sedimentation of the beads as described above. By substituting GST-c Jun for biotinylated GST-1ATF2 or myelin basic protein, this assay can be used to measure inhibition of preactivated p38 and ERK MAP Kinases, respectively.
(§2) The values indicated in respect of JNK2 and 3, p38 and ERK2 refer to the IC50 (μM), i.e. the amount necessary to achieve 50% inhibition of said target (e.g. JNK2). From the above table it could be derived that said test compounds according to formula I do have a significant effect both on JNK2 and 3, but virtually no effect onto p38 and ERK2, thus delivering a quite selective inhibitory effect.

[2] = test system: IL-2 release by Jurkat cells; assay: IL-2 release assay (PMA+Ionomycine stimulated, ELISA); format: cell-based; conditions: Homo sapiens, 24 hours, read-out: % Inhibition of IL2 Production @ 3 uM
Description: Jurkat cells, a human T cell leukemia cell line (American Type Culture Collection # TIB 152) were cultured in RPMI 1640 medium (Gibco, BRL) supplemented with 10% of heatactivated FCS, Glutamine and Penstrep. The cell suspension in the medium is diluted to give 2.10^6 cells/mL. The cells were plated (2.10^5 cells/well) on a 96-well plate containing different concentration of test compound (final concentration of compounds, 10, 3, 1, 0.3, 0.1 μM). This mixture is incubated 30 minutes at 37° C. in a humidified CO2 atmosphere. Cells were then treated with 10 ul PMA+Ionomycine (0.1 μM and 1 μM final concentration) in all wells except negative control. In wells without compounds, 10 μl of RPMI 2% DMSO (=0.1% final) is added. Cells are incubated 24 hours at 37° C. and then the supernatant harvested (freeze at −20° C. if not used the same day) prior to performing IL-2 ELISA test on the supernatant.
IL-2 release into the medium by PMA+Iono-stimulated Jurkat cells, in presence or absence of test compounds is assayed by ELISA. Following the procedure described below
Transfer 100 μl capture antibody diluted in PBS at 5 μg/mL into a 96 well ELISA plate and incubate overnight at room temperature.
Aspirate each well and wash 3 times with Wash buffer. After the last wash, damp the plate.
1. Saturate with 200 μl PBS-10% FCS. Incubate 1 hour at room temperature.
2. Repeat the wash step 2.
• 1. Add 100 μl of sample or standard (2000, 1000, 500, 250, 125, 62.5, 31.25 pg/mL) and incubate 2 hours at room temperature. • 2. Wash 3 times. • 3. Add 100 μl of biotinylated anti-human IL-2 at 12.5 ng/mL. Incubate 2 hours at room temperature. • 4. Wash 3 times. • 5. Add 100 μl streptavidin-HRP (Zymed #43-4323) at 1:10,000. Incubate 30 minutes at room temperature. • 6. Wash 3 times • 7. Add 100 μl substrate solution (citric acid/Na2HPO4 (1:1)+H2O2 1:2000+OPD). Incubate 20-30 minutes at room temperature. • 8. Add 50 μl of stop solution to each well. • 9. Determine optical density using a microtiter plate reader set to 450 nm with correction at 570 nm.

[3] = target: GST-JNK3 (Homo sapiens, UniProt P53779); assay: JNK3 in vitro assay (SPA, GST-c-Jun phosphorylation); format: biochemical; conditions: recombinant pre-activated GST-JNK3, 2 μM ATP
Description: as §1, §2

[4] = target: ERK2 (Homo sapiens, UniProt P28482); assay: ERK2 in vitro kinase assay (SPA, myelin basic protein substrate); format: biochemical; conditions: preactivated ERK
Description: as §1, §2

[5] = target: GST-JNK2 (Homo sapiens, UniProt P45984); assay: JNK2 in vitro assay (SPA, GST-c-Jun phosphorylation); format: biochemical; conditions: recombinant pre-activated GST-JNK2, 2 μM ATP
Description: as §1, §2

[6] = test system: Hlr c-Jun HeLa cells; assay: C-Jun reporter assay (MEKK1 induced, Dual-Luciferase); format: cell-based; conditions: Homo sapiens
Description: Hlr c-Jun HeLa cells are cultured in DMEM High Glc supplemented with 10% FCS (Sigma), 2 mM Glutamine (Gibco), P/S, Hygromycin b 100 μg/mL and G418 250 μg/mL
The cell suspension are diluted with medium to give about 3.5×10^6 cells/mL and […] of cell suspension are put onto 210 cm culture dishes containing 9 mL of culture medium. The plates are incubated at 37° C. in a humidified atmosphere of 5% CO2 in air
• Control: 0.2 μg pTK Renilla, […] pBluescript KS, 500 μl OPTIMEM (GIBCO), 18 μl Fugene 6 • Induced: 0.1 μg pMEKK1, 0.2 μg pTK Renilla, 5.7 μg pBluescript KS, 500 μl OPTIMEM (GIBCO), 18 μl Fugene 630′ RT
The transfection mixture is added to the plated cells. The plates are incubated over night at 37° C. in a humidified atmosphere of 5% CO2 in air
A 96 wells plate containing 100 μl of culture medium per well is prepared Negative control (vehicle): 2 μl of DMSO is added to the 100 μl (in triplicate). Compound: 2 μl of Hit compound stock dilution are added to the 100 μl (in triplicate). The transfected cells are trypsinised and ressuspend in 12 mL of culture medium. 100 μl of the dilution are added to each of the 96 wells plate.
The plate is incubated over night at 37° C. in a humidified atmosphere of 5% CO2 in air
The medium is removed from the plate and the cells washed two times with 100 μl PBS Completely remove the rinse solution before applying PLB reagent. Dispense into each culture well […] of 1X PLB. Place the culture plates on a rocking platform or orbital shaker with gentle
rocking/shaking to ensure complete and even coverage of the cell monolayer with 1X PLB. Rock the culture plates at room temperature for 15 minutes. Transfer 20 μl of the lysate into a white opaque 96 wells plate. Read in a luminometer. • Inject 50 μl of Luciferase Assay Reagent II wait 5″, read 10″ • Inject 50 μl of Stop & Glo® Reagent wait 5″, read 10″
Check RLU Luciferase/RLU Renilla*1000

ERK2, sequence (P28482 whole entry, species assumed): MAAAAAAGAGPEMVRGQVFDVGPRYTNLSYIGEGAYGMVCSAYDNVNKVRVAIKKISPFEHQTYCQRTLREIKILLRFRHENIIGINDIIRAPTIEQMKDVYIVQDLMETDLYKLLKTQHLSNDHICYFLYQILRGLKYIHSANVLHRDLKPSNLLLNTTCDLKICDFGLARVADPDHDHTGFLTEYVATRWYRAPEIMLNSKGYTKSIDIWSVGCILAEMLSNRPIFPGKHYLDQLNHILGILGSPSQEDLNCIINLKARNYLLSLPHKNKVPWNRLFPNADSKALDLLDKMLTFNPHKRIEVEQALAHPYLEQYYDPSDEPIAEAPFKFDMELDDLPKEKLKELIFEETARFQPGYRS
GST-JNK3, sequence (P53779 whole entry): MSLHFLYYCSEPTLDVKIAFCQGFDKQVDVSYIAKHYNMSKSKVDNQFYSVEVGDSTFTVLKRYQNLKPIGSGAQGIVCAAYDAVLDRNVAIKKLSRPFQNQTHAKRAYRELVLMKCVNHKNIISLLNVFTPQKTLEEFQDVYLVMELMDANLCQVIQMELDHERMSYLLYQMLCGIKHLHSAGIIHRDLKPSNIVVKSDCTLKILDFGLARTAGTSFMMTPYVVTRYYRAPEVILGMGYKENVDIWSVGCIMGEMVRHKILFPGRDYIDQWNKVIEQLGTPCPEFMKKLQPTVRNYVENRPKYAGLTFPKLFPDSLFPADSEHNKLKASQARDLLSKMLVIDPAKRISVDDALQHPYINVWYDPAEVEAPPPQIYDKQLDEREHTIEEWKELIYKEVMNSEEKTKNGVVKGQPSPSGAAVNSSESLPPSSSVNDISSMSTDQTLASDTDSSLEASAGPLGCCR
p38, sequence (Q16539 whole entry): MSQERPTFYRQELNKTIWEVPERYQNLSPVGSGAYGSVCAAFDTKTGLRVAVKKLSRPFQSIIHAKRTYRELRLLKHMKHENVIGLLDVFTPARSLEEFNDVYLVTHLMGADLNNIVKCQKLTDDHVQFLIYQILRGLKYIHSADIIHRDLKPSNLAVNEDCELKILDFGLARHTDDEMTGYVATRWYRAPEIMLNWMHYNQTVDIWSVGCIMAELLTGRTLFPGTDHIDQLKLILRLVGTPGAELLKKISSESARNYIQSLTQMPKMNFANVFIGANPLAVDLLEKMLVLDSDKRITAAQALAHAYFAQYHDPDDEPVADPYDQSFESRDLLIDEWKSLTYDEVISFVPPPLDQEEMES
GST-JNK2, sequence (P45984 whole entry): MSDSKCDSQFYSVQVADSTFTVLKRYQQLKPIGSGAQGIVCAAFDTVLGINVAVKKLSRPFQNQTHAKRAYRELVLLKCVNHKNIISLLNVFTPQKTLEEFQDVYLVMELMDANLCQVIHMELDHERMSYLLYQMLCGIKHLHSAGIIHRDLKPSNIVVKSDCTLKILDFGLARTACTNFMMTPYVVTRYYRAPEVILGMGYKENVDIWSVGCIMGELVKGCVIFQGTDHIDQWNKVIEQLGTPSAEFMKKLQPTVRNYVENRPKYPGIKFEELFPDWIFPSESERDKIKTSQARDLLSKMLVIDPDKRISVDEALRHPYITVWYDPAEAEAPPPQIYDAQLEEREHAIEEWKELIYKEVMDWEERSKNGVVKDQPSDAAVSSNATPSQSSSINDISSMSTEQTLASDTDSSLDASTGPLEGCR

| SMILES | pIC50 [1] | pIC50 [3] | pIC50 [4] | pIC50 [5] | melting point [°C] | inhibition at 3 µM [2] [%] | inhibition at 10 µM [6] [%] |
| --- | --- | --- | --- | --- | --- | --- | --- |
| O=C(NCc1ccc(S(=O)(=O)NNC(=O)c2csc(-c3ccc(C4SCCS4)cc3)n2)s1)c1ccc(Cl)cc1 [Example 1, 4-chloro-N-[(5-{[2-({2-[4-(1,3-dithiolan-2-yl)phenyl]-1,3-thiazol-4-yl}carbonyl)-hydrazino]sulfonyl}thien-2-yl)methyl]benzamide] | < 4.52 | 6.68 | < 4.52 | 6.43 | – | > 30 | > 20 |
| O=C(NCc1ccc(S(=O)(=O)NNC(=O)c2csc(COc3ccccc3Cl)n2)s1)c1ccc(Cl)cc1 [Example 13, 4-chloro-N-[(5-{[2-({2-[(2-chlorophenoxy)methyl]-1,3-thiazol-4-y1}carbonyl)hydrazino]sulfonyl}thien-2-yl)methyl]benzamide] | < 4.52 | 6.51 | < 4.52 | 6.01 | – | > 30 | > 20 |
| O=C(CCCNc1ncc(C(F)(F)F)cc1Cl)NNS(=O)(=O)c1ccc(CNC(=O)c2ccc(Cl)cc2)cc1 [Example 80, 4-chloro-N-(4-{[2-(4-{[3-chloro-5-(trifluoromethyl)pyridin-2-yl]amino}butanoyl)hydrazino]sulfonyl}benzyl)benzamide] | < 4.52 | 6.60 | < 4.52 | 5.99 | – | > 30 | > 20 |

More lines, main results first:

| pIC50 [1] | pIC50 [3] | pIC50 [4] | pIC50 [5] | melting point [°C] | SMILES | inhibition at 3 µM [2] [%] | inhibition at 10 µM [6] [%] |
| --- | --- | --- | --- | --- | --- | --- | --- |
| – | – | – | – | 174.5 to 175.5 | O=C(CCCNc1ncc(C(F)(F)F)cc1Cl)NNS(=O)(=O)c1ccc(CNC(=O)c2ccccc2O)s1 [Example 20, N-[(5-{[2-(4-{[3-chloro-5-(trifluoromethyl)pyridin-2-yl]amino}butanoyl)hydrazino]sulfonyl}thien-2-yl)methyl]-2-hydroxybenzamide] | – | – |
| < 4.52 | 6.39 | < 4.52 | 6.25 | – | O=C(CCCNc1ncc(C(F)(F)F)cc1Cl)NNS(=O)(=O)c1ccc(CNC(=O)c2ccc[nH]c2=O)s1 [Example 75, N-[(5-{[2-(4-{[3-chloro-5-(trifluoromethyl)pyridin-2-yl]amino}butanoyl)hydrazino]sulfonyl}thien-2-yl)methyl]-2-oxo-1,2-dihydropyridine-3-carboxamide] | > 30 | > 20 |

Source: patent US7432286B1, “Pharmaceutically active sulfonyl hydrazide derivatives” (Laboratories Serono SA, priority 1999, dated 2008)
